According to patent US8129532B2, “Amino(oligo)thiophene dyes, preparation thereof, and optical methods of use” (The University of Connecticut, priority 2007, dated 2012):

Tested on: layer V pyramidal neurons
Assay: Voltage-sensitive dye imaging of action potentials in intracellularly stained pyramidal neurons in brain slices
Assay type: cell-based, Sprague Dawley rats
Conditions: for dF/F at 658 nm / dF/F at 633 nm: backpropagating AP, %; for dF/F at 658 nm / voltage sensitivity compared with red dye / dF/F at 633 nm: basal dendrites 80-150 μm from soma; for dF/F at 658 nm / S/N ratio at 658 nm: laser spot 658 nm; for dF/F at 633 nm / S/N ratio at 633 nm: laser spot 633 nm
Text: Sprague Dawley rats (P21-42) were anesthetized with isoflurane, decapitated, and the brains were removed with the head immersed in ice-cold, artificial cerebrospinal fluid (ACSF), according to an animal protocol approved by the Center for Laboratory Animal Care, University of Connecticut. Brain slices (300 μm) were cut from frontal lobes in the coronal plane. ACSF contained (in mM) 125 NaCl, 26 NaHCO3, 10 glucose, 2.3 KCl, 1.26 KH2PO4, 2 CaCl2 and 1 MgSO4, pH 7.4. Whole-cell recordings were made from visually identified layer V pyramidal neurons on the medial part of the slice. Intracellular solution contained (in mM) 135 K-gluconate, 2 MgCl2, 3 Na2-ATP, 10 Na2-phosphocreatine, 0.3 Na2-GTP and 10 Hepes (pH 7.3, adjusted with KOH). Electrical signals were amplified with Multiclamp 700A and digitized with two input boards: (1) Digidata Series 1322A (Axon Instruments) at 5 kHz, and (2) Neuroplex (RedShirtImaging) at 2.7 kHz sampling rate. Only cells with a membrane potential more hyperpolarized than −50 mV, and action potential amplitudes exceeding 80 mV (measured from the base line) were included in this study. All experiments were performed on layer 5 cortical pyramidal cells at 34° C.
Blue dyes were stored in ethanol stock solution at −20° C. On the day of the recording blue dyes were dissolved in standard K-gluconate based intracellular solution. A loading pipette was filled with two varieties of the same intracellular solution; one with and one without dye. Dye-free solution was occupying the very tip of the pipette, while the back of the pipette lumen was microloaded with dye-rich solution. The purpose of dye-free solution in the tip of the patch pipette was to prevent dye-leak during the maneuver through brain slice tissue. VSD styryl dyes are lipophilic and bind indiscriminately and irreversibly to all membranes around the neuron of interest. Even a small amount of dye that leaks out of the pipette during the formation of the gigaohm seal, can generate strong fluorescent background. Fluorescent light emanating from surrounding tissue has a devastating effect on dendritic optical signals. Elimination of the background fluorescence is critical for dendritic voltage imaging. How much dye-free solution one should put in the tip depends on time period between the submersion of the patch pipette into the recording chamber and formation of the gigaohm seal. The faster one can perform this maneuver the less dye-free solution she needs to achieve optimal staining.
Blue VSD were injected at room temperature for 25-60 minutes. The filling pipette was carefully pulled out (outside-out patch) and brain slices were left to incubate for 20-120 minutes at room temperature. Just before optical recordings the cells were re-patched with dye-free pipette at the physiological temperature (34° C.).
Voltage-sensitive dye imaging was performed on a Zeiss Axioskope 2FS microscope equipped with NeuroCCD camera (RedShirtImaging). We used Zeiss 40× objective IR-Achroplan 0.80 W. The size of the square visual field captured by NeuroCCD camera was 384×384 um. In the place of the arc lamp (normally used for epi-illumination), we inserted a 200 μm fiber optic guide with a collimator. Laser beam was focused on the other side of the fiber optic guide using a microscope objective-like lens. This arrangement produced a motionless spot of laser light (˜25 μm in diameter) at the object plane. An illuminated section of the brain slice, projected onto the NeuroCCD camera, covered approximately 25 pixels when used with 40× objective lens. At this magnification, one pixel sampled a 4.8×4.8 square in the object plane. A region of interest (ROI) was brought into the laser spot using X-Y microscope platform. The laser beam was interrupted by an electro-programmable shutter (Uniblitz®). Attention was made to limit the exposure time during the recording and positioning of the neuron.

Structure (SMILES) | dF/F at 658 nm [%] | voltage sensitivity compared with red dye | S/N ratio at 658 nm | dF/F at 633 nm [%] | S/N ratio at 633 nm | polarity of optical signal at 532 nm excitation | polarity of optical signal at 658 nm excitation
CCN(CC)c1ccc(-c2ccc(/C=C/c3cc[n+](CCC[N+](CC)(CC)CC)cc3)s2)s1 [PY-1261, Di-2-BTEPPTEA] | 7.91 ± 1.57 | better sensitivity than red dye JPW-3028 | 5.38 ± 1.86 |  |  |  | 
CCCN(CCC)c1ccc(-c2ccc(/C=C/c3cc[n+](CCC[N+](CC)(CC)CC)cc3)s2)s1 [PY-1286, Di-3-BTEPPTEA] | 7.64 ± 2.20 | better sensitivity than red dye JPW-3028 | 5.13±2.31 | 13.67 ± 2.89 | 4.53 ± 0.95 |  | 
CCCCN(CCCC)c1ccc(-c2ccc(/C=C/c3cc[n+](CCC[N+](CC)(CC)CC)cc3)s2)s1 [PY-1266, Di-4-BTEPPTEA] | 8.32 ± 2.13 | better sensitivity than red dye JPW-3028 | 5.22 ± 1.32 | 10.41 ± 2.80 | 4.77 ± 1.35 | positive signals | positive signals
